Ten molecules from ChEMBL document CHEMBL1201862, “PubChem BioAssay data set” (2004) can be followed below.

Among the test systems are CAKI-1; DU-145; Hs-578T; IGROV-1; MCF7; MDA-MB-231; MDA-N; NCI-H23; NCI/ADR-RES; OVCAR-5; RPMI-8226; SK-MEL-2; SN12C; SR; HOP-62; MDA-MB-435; BT-549.
Common to all, as to assay: NCI-60 cell line screen, 48 h

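Grown in 96-well plates, cells were treated for 48 hours with each compound at five concentrations. Insufficient inhibition: endpoint recorded as highest concentration tested. GI50 = concentration required for 50% inhibition of growth.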 Activity calls are given as the source filed them. Rule as the data show it: active = GI50 up to about 1.1 µM and inactive = higher.

As for `C/C(Cl)=N\OC(=O)Nc1ccccc1C(F)(F)F`, the GI50 in the assay on CAKI-1 is > 100 µM (inactive); in the assay with DU-145, > 100 µM (inactive); in the assay on Hs-578T, > 100 µM (inactive); in the assay with IGROV-1 it was > 100 µM (inactive); in the assay on MCF7, 14.9 µM (inactive); with MDA-MB-231, 22.6 µM (inactive). The GI50 with MDA-N was 16.4 µM (inactive); in the assay on NCI-H23, > 100 µM (inactive); in the assay with NCI/ADR-RES, 19.3 µM (inactive); in the assay with OVCAR-5, 42.6 µM (inactive); in the assay on RPMI-8226, 21 µM (inactive); in the assay with SK-MEL-2 it was > 100 µM (inactive). Also, the GI50 with SN12C is > 100 µM (inactive); in the assay with SR, 17.1 µM (inactive).

Consider `O=C(c1ccc2ccccc2c1O)N1CCCCC1`, for which the GI50 in the assay with CAKI-1, with DU-145, in the assay with HOP-62, with Hs-578T, with IGROV-1 and in the assay on MCF7 was > 100 µM (inactive) each time. Further, the GI50 in the assay with MDA-MB-231 was > 100 µM (inactive); in the assay on MDA-MB-435, > 100 µM (inactive); in the assay with NCI-H23, 32.4 µM (inactive); in the assay on NCI/ADR-RES it was 39 µM (inactive); with RPMI-8226 it was 27.4 µM (inactive); in the assay on SK-MEL-2, > 100 µM (inactive). Besides, the GI50 in the assay with SR was > 10 µM (inactive).

As to `COc1ccc2c(c1)C(=O)CC(C(N)=O)C2` (stereo not drawn), the GI50 with BT-549, with CAKI-1, in the assay on DU-145, in the assay with HOP-62, in the assay with Hs-578T and in the assay on IGROV-1 was > 100 µM (inactive) throughout. Besides, the GI50 in the assay on MCF7, in the assay on MDA-MB-231, in the assay on MDA-MB-435, in the assay with NCI-H23, in the assay on NCI/ADR-RES and in the assay on OVCAR-5 was > 100 µM (inactive) in each case. The GI50 with RPMI-8226, in the assay with SK-MEL-2, in the assay with SN12C and in the assay on SR was > 100 µM (inactive) each time.

As for `CCOC(=O)c1csc(NC(=O)C(C)N2CCCC2)n1` (stereo not drawn), the GI50 with CAKI-1, with DU-145, with HOP-62, with IGROV-1, with MCF7 and in the assay on MDA-MB-231 was > 100 µM (inactive) throughout. The GI50 was > 100 µM (inactive) with MDA-MB-435; > 100 µM (inactive) in the assay with MDA-N; > 100 µM (inactive) with NCI-H23; > 100 µM (inactive) with OVCAR-5; 19.3 µM (inactive) in the assay on RPMI-8226; > 100 µM (inactive) in the assay on SK-MEL-2.

Consider `O=C(Nc1ccc(F)cc1)c1cc2c(cc1Cl)Sc1nccn1S2(=O)=O`, for which the GI50 in the assay on CAKI-1 is 30.7 µM (inactive); in the assay on DU-145, > 100 µM (inactive); in the assay with HOP-62, 34.8 µM (inactive); in the assay on Hs-578T, 30.8 µM (inactive); with IGROV-1, > 100 µM (inactive); in the assay on MCF7, 77.8 µM (inactive). Moreover, the GI50 with MDA-MB-231 is 38.2 µM (inactive); with MDA-MB-435 it was 59.4 µM (inactive); with MDA-N, > 100 µM (inactive); in the assay on NCI/ADR-RES, > 100 µM (inactive); in the assay on OVCAR-5, > 100 µM (inactive); in the assay with SK-MEL-2, > 100 µM (inactive). In the assay with SN12C, the GI50 is 51.2 µM (inactive).

Consider `COc1ccc(/C=C2/SC(c3c(O)ccc4ccccc34)N(NC(=O)CCCCCCCCC(=O)NN3C(=O)/C(=C\c4ccc(OC)c(OC)c4)SC3c3c(O)ccc4ccccc34)C2=O)cc1OC` (stereo not drawn), for which the GI50 in the assay on CAKI-1 was 1.22 µM (inactive); in the assay with DU-145, 1.61 µM (inactive); in the assay with HOP-62, 0.65 µM (active); in the assay on IGROV-1, 0.481 µM (active); with MCF7, 1.71 µM (inactive); in the assay on MDA-MB-435, 11.3 µM (inactive). Further, the GI50 in the assay with MDA-N is 12.8 µM (inactive); in the assay on NCI-H23, 2.22 µM (inactive); in the assay with NCI/ADR-RES it was 1.77 µM (inactive); with OVCAR-5, 21.5 µM (inactive); in the assay on RPMI-8226 it was 0.995 µM (active); in the assay with SK-MEL-2, 1.08 µM (active). The GI50 in the assay on SN12C was 3.94 µM (inactive); with SR it was 0.0962 µM (active).

For `O=C(C/C=C/c1ccccc1)c1ccccc1`, the GI50 was 17 µM (inactive) in the assay with CAKI-1; 16 µM (inactive) with DU-145; 26.9 µM (inactive) with HOP-62; 21.8 µM (inactive) in the assay with Hs-578T; 23.5 µM (inactive) in the assay with IGROV-1; 15 µM (inactive) in the assay on MCF7. For the same molecule, the GI50 is 18 µM (inactive) in the assay on MDA-MB-435; 19.8 µM (inactive) with MDA-N; 15.1 µM (inactive) in the assay on NCI-H23; 15.3 µM (inactive) in the assay with NCI/ADR-RES; 28.6 µM (inactive) in the assay with OVCAR-5; 28.2 µM (inactive) with RPMI-8226. The GI50 with SN12C is 24.3 µM (inactive); in the assay on SR it was 12.4 µM (inactive).

For the molecule `O=C1CCCSC(=O)N1Cc1ccccc1`, the GI50 in the assay with CAKI-1, with DU-145, in the assay on HOP-62, with Hs-578T, in the assay on IGROV-1 and in the assay on MCF7 was > 100 µM (inactive) each time. Besides, the GI50 in the assay with MDA-MB-231, in the assay on MDA-MB-435, in the assay on MDA-N, with NCI-H23, in the assay with NCI/ADR-RES and in the assay with OVCAR-5 was > 100 µM (inactive) throughout. Besides, the GI50 in the assay with SK-MEL-2, in the assay with SN12C and in the assay on SR was > 100 µM (inactive) in each case.

Turning to `Cc1cc2c(cc1C(=O)CCC(=O)O)CC1(C2)Cc2cc(C)c(C(=O)CCC(=O)O)cc2C1`, the GI50 in the assay on CAKI-1, with DU-145, in the assay on HOP-62, in the assay with Hs-578T, in the assay on IGROV-1 and in the assay on MCF7 was > 100 µM (inactive) each time. Besides, the GI50 in the assay with MDA-MB-231, in the assay with MDA-MB-435, with MDA-N, in the assay with NCI-H23, in the assay on NCI/ADR-RES and in the assay on OVCAR-5 was > 100 µM (inactive) in each case. The GI50 in the assay with RPMI-8226, in the assay on SK-MEL-2, with SN12C and in the assay with SR was > 100 µM (inactive) throughout.

Turning to `O=C1c2cc3c(cc2CC12Cc1cc4c(cc1C2)CCC4)CCC3`, the GI50 in the assay on CAKI-1, in the assay with DU-145, in the assay on HOP-62, in the assay on Hs-578T, in the assay on IGROV-1 and in the assay on MCF7 was > 100 µM (inactive) throughout. For the same molecule, the GI50 in the assay with MDA-MB-231, in the assay with MDA-MB-435, in the assay on MDA-N, in the assay on NCI-H23, in the assay on NCI/ADR-RES and in the assay with OVCAR-5 was > 100 µM (inactive) in each case. The GI50 with RPMI-8226, in the assay with SK-MEL-2, in the assay with SN12C and in the assay with SR was > 100 µM (inactive) each time.
